Where “and” joins values, the source holds several entries; their conditions need not be identical. Equal values may be shown once.
Assays:
Format in all cases: cell-based, human
22Rv1 cells [1] = experiment: Drug combination MTT assay, SynergyFinder ZIP analysis; conditions: 22Rv1, 48 h
Procedure: (§1) Fig. 5 Effects of CuC1 in combination with taxanes and platinum agents. PC3-DR and 22Rv1 cells were co-treated with cisplatin (Cis), carboplatin (Carbo), docetaxel (Doce), or cabazitaxel (Caba) in combination with CuC1 at the indicated concentrations for 48 h. Cellular viability was evaluated using the MTT assay (number of biological replicates n = 3.) and is represented in the Supplementary Table S2. The cytotoxic effects were further analyzed, and 3D heat maps were constructed using SynergyFinder 3.0 software. The drug effects in combination (synergistic, additive, or antagonistic) were analyzed and visualized using the ZIP algorithm and are indicated by δ-score. δ > 10: Synergistic interactions (dark red area); […]: additive effect; δ < − 10: Antagonistic interactions (dark green area). A ZIP synergy score represents a mean δ overall the concentration range used.
(§2) The effect of combinational treatment with established chemotherapies was evaluated as previously reported^54. In brief, cells were exposed to individual drugs of their combinations for 48 h, and the viability was measured by MTT assay and was then analyzed using SynergyFinder 3.0 software (https://synergyfinder.fimm.fi) and the ZIP score algorithm. Statistical analysis was conducted automatically by the software using its inbuilt algorythms based on the input data type and size.

PC3-DR cells [2] = experiment: as above; conditions: 48 h
Procedure: as §1, §2

22Rv1 cells [3] = experiment: MTT cytotoxicity assay; conditions: 22Rv1, 48 h, mean ± SD
From the text: (§3) The cell lines were purchased from ATCC (Manassas, VA, USA) or ECACC (Salisbury, UK). The following cell lines were used: Human prostate cancer cells LNCaP (ATCC; RRID:CVCL_0395), VCaP (ECACC; RRID:CVCL_2235), 22Rv1 (ATCC; RRID:CVCL_1045), PC3 (ATCC; RRID:CVCL_0035), and DU145 (ATCC; RRID:CVCL_0105); human prostate non-cancer cells PNT2 (ATCC; RRID:CVCL_2164) and RWPE-01 (ATCC; RRID:CVCL_3791). Human non-cancer embryonic kidney cells HEK293T (ECACC; RRID:CVCL_0063) and human fibroblast cells MRC-9 (ECACC; RRID:CVCL_2629). The docetaxel-resistant cells PC3-DR were generated by long-term treatment of human prostate cancer PC3 cells with sublethal concentrations of docetaxel as previously described[32] and were provided by Prof. Z. Culig (Innsbruck Medical University, Austria). All cell lines were recently authenticated by a commercial service (Multiplexion GmbH, Heidelberg, Germany) and were cultured as previously described[58],[59]. Cells were kept in culture for a maximum of three months and were routinely examined for bacterial, fungal, and mycoplasma infections.

DU145 cells = experiment: MTT cytotoxicity assay; conditions: DU145, 48 h, mean ± SD
From the text: as §3

HEK293T cells = experiment: MTT cytotoxicity assay; conditions: 48 h, mean ± SD
From the text: as §3

LNCaP cells = experiment: MTT cytotoxicity assay; conditions: 48 h, mean ± SD
From the text: as §3

MRC-9 cells = experiment: MTT cytotoxicity assay; conditions: MRC-9, 48 h, mean ± SD
From the text: as §3

PC3 cells = experiment: MTT cytotoxicity assay; conditions: PC3, 48 h, mean ± SD
From the text: as §3

PC3-DR cells [4] = experiment: MTT cytotoxicity assay; conditions: 48 h, mean ± SD
From the text: as §3

PNT2 cells = experiment: MTT cytotoxicity assay; conditions: PNT2, 48 h, mean ± SD
From the text: as §3

RWPE-1 cells = experiment: MTT cytotoxicity assay; conditions: RWPE-1, 48 h, mean ± SD
From the text: as §3

VCaP cells = experiment: MTT cytotoxicity assay; conditions: 48 h, mean ± SD
From the text: as §3

[5] = tested on: non-cancer PNT2, RWPE-1, HEK293T, MRC-9 cells vs cancer PC3, 22Rv1, DU145, VCaP, LNCaP cells; experiment: Selectivity index from MTT IC50 values; conditions: [mean IC50 in non-cancer cells] / [mean IC50 in cancer cells]; Doce IC50 in PNT2 and MRC-9 assumed 500 nM

With `N.N.O=C([O-])C1(C(=O)[O-])CCC1.[Pt+2]` [Carbo, carboplatin] the “Response (% of effect)” value (22Rv1 cells [1]; Carbo 12.5 μM alone) was 0.01% and 4.629%, the “Response (% of effect)” value (22Rv1 cells [1]; Carbo 25 μM alone) was 11.3613% and 13.96% and the “Response (% of effect)” value (22Rv1 cells [1]; Carbo 50 μM alone) was 22.27% and 31.0235%. For the same compound, the “Response (% of effect)” value (22Rv1 cells [1]; Carbo 100 μM alone) was 32.94% and 38.66%, the “Response (% of effect)” value (PC3-DR cells [2]; Carbo 6.25 μM alone) was 0.01% and 9.352% and the “Response (% of effect)” value (PC3-DR cells [2]; Carbo 12.5 μM alone) was 6.12% and 8.386%.
For `N.N.[Cl][Pt][Cl]` [Cis, cisplatin], the IC50 (22Rv1 cells [3]) was 0.993 ± 0.2 µM, the IC50 (DU145 cells) was 1.32 ± 0.31 µM and the IC50 (HEK293T cells) was 6.44 ± 0.65 µM. It also gave an IC50 (LNCaP cells) of 2.75 ± 0.39 µM, an IC50 (MRC-9 cells) of 6.75 ± 2.15 µM and an IC50 (PC3 cells) of 34.6 ± 6.62 µM. The IC50 (PC3-DR cells [4]) was 6.89 ± 2.29 µM, the IC50 (PNT2 cells) was 9.41 ± 1.82 µM and the IC50 (RWPE-1 cells) was 9.02 ± 1.52 µM. The IC50 (VCaP cells) was 5.02 ± 2.73 µM, the “Selectivity index (SI)” value [5] was 0.88 and the “Response (% of effect)” value (22Rv1 cells [1]; Cis 2.5 μM alone) was 17.58% and 11.05%. For the same compound, the “Response (% of effect)” value (22Rv1 cells [1]; Cis 5 μM alone) was 26.89% and 27.91%, the “Response (% of effect)” value (22Rv1 cells [1]; Cis 10 μM alone) was 40.95% and 37.6% and the “Response (% of effect)” value (PC3-DR cells [2]; Cis 1.25 μM alone) was 12.8% and 15.79%. The “Response (% of effect)” value (PC3-DR cells [2]; Cis 2.5 μM alone) was 18.7% and 21.63%, the “Response (% of effect)” value (PC3-DR cells [2]; Cis 5 μM alone) was 29.8412% and 29.49% and the “Response (% of effect)” value (PC3-DR cells [2]; Cis 10 μM alone) was 50.19% and 51.55%.
For `CO[C@H]1C(=O)[C@]2(C)[C@@H](OC)C[C@H]3OC[C@@]3(OC(C)=O)[C@H]2[C@H](OC(=O)c2ccccc2)[C@]2(O)C[C@H](OC(=O)[C@H](O)[C@@H](NC(=O)OC(C)(C)C)c3ccccc3)C(C)=C1C2(C)C` [Caba, cabazitaxel], the “Response (% of effect)” value (22Rv1 cells [1]; Caba 0.25 nM alone) was 3.714%, the “Response (% of effect)” value (22Rv1 cells [1]; Caba 0.5 nM alone) was 20.36% and 24.57% and the “Response (% of effect)” value (22Rv1 cells [1]; Caba 1 nM alone) was 27.6928% and 30.03%. For the same compound, the “Response (% of effect)” value (22Rv1 cells [1]; Caba 2 nM alone) was 32.86% and 33.2%, the “Response (% of effect)” value (PC3-DR cells [2]; Caba 12.5 nM alone) was 26.4286% and 23.41% and the “Response (% of effect)” value (PC3-DR cells [2]; Caba 25 nM alone) was 28.07% and 33.73%. The “Response (% of effect)” value (PC3-DR cells [2]; Caba 50 nM alone) was 43.53% and 46.12% and the “Response (% of effect)” value (PC3-DR cells [2]; Caba 100 nM alone) was 53.45% and 58.01%.

From article PMC12322260, “Anticancer activity of triterpene glycosides from the sea star Solaster pacificus” (Scientific Reports, 2025)
